Data on 1 molecule can be found in patent publication US9102931B1, “Yeast strains and method for lignocellulose to ethanol production” (priority 2012, dated 2015).

Test [1] has as its system native xylose uptake of S. cerevisiae Y-50049-YXI (control host strain, YXI xylose isomerase SEQ ID NO: 63, no added xylose transporter gene). Description: Aerobic xylose uptake kinetics (Lineweaver-Burk), host strain Y-50049-YXI (control). The conditions noted are these: whole cells, 30° C. It counts as cell-based. An excerpt:
The relative performance of yeast strains Y-50746, Y-50747, Y-50748, Y-50749, Y-50465, and Y-50466 containing a xylose isomerase gene and a xylose xylose transporter gene was further assessed in cell populations that were first grown aerobically on xylose and then transferred into fresh culture medium at high cell density. Under these conditions a high metabolic carbon demand creates the potential for transport to be a limiting factor and amplifies volumetric xylose consumption from the medium. Aerobic xylose uptake rate was assessed for the host strain Y-50049−YXI and each of its six xylose transporter-expressing derivatives. […] Once xylose was added to cultures, the reaction timing began, and the first sample was immediately taken, diluted for optical density reading, and centrifuged (10,000 rpm, 6 min). […] Subsequent samples were collected at 2 h, 4 h, 6 h, and the specific xylose consumption rate (V) was calculated as the rate of decline in xylose concentration (X)/per dry cell concentration (b), assuming the linear correlation of dry yeast biomass concentration with absorbance, b=(0.167 g/L). […] The relative statistical differences between strain performances due to the specific transporter gene expressed were determined by running a two-way analysis of variance of V as a function of the transporter gene and the initial xylose concentration. […]

Test [2] concerns the target T1, S. stipitis xylose transporter XUT7, SEQ ID NO: 65, in S. cerevisiae Y-50049-YXI-XUT7 (NRRL Y-50466) (Scheffersomyces stipitis, UniProt J9PER1).
T1 construct: whole-cell xylose uptake; S. stipitis CUG codons are read as Leu in this host
T1 sequence (J9PER1 1-418): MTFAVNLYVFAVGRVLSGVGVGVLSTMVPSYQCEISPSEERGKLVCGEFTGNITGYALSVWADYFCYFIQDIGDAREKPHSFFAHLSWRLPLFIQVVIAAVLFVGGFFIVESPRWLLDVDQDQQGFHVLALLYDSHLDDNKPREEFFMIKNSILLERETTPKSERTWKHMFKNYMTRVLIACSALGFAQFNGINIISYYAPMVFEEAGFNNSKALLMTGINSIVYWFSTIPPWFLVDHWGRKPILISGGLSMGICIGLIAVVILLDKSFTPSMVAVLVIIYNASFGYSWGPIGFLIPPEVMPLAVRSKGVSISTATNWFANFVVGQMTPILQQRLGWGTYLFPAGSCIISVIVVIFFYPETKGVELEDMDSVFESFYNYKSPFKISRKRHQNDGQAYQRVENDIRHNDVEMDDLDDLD
Nature of the test: Aerobic xylose uptake kinetics (Lineweaver-Burk), Y-50049-YXI-XUT7. It is filed as cell-based. The conditions noted are these: whole cells, 30° C. An excerpt:
(§1) A portion of promoter and terminator for PGK1 was amplified from S. cerevisiae NRRL Y-50049 genomic DNA using primers PGK_PL/PGK_PR and PGK_TL/PGK_TR, as detailed in the Description of Sequences above. Amplified PGK1 fragments were cloned into vector pRS42H resulting in pRS42H -PGK1 promoter-terminator. Six putative xylose transporter genes XUT4, XUT5, XUT6, XUT7, RGT2, and SUT4 were amplified using various primers from the genomic DNA of S. stipitis. Each xylose transporter gene was cloned into the S. cerevisiae expression vector pRS42H-PGK1 promoter-terminator with proper restriction endonuclease sites designed. All DNA oligos were synthesized by IDT (Coralville, Iowa). […]
(§2) The relative performance of yeast strains Y-50746, Y-50747, Y-50748, Y-50749, Y-50465, and Y-50466 containing a xylose isomerase gene and a xylose xylose transporter gene was further assessed in cell populations that were first grown aerobically on xylose and then transferred into fresh culture medium at high cell density. […] Aerobic xylose uptake rate was assessed for the host strain Y-50049−YXI and each of its six xylose transporter-expressing derivatives. […] Once xylose was added to cultures, the reaction timing began, and the first sample was immediately taken, diluted for optical density reading, and centrifuged (10,000 rpm, 6 min). […]

For test [3], the target named is T2, S. stipitis xylose transporter XUT4, SEQ ID NO: 68, in S. cerevisiae Y-50049-YXI-XUT4 (NRRL Y-50747) (Scheffersomyces stipitis, UniProt J9PED0).
T2 construct: whole-cell xylose uptake; S. stipitis CUG codons are read as Leu in this host
T2 sequence (J9PED0 entry or part of it): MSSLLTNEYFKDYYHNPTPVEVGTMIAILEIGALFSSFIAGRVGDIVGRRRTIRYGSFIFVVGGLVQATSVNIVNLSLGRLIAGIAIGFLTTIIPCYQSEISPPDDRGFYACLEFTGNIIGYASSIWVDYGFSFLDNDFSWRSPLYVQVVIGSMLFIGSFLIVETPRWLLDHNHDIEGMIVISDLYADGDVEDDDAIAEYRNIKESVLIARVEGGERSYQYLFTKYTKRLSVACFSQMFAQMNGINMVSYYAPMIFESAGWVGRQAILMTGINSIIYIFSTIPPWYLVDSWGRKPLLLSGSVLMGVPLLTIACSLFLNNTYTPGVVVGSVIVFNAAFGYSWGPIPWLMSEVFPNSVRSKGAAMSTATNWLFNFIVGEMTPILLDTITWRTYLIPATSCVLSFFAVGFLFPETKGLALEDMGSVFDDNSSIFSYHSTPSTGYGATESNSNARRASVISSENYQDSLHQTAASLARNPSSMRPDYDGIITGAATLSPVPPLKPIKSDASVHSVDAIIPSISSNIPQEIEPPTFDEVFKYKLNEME
Description: Aerobic xylose uptake kinetics (Lineweaver-Burk), Y-50049-YXI-XUT4. It is filed as cell-based. The settings on record: whole cells, 30° C.
Text: as §1, §2

In test [4] the target is T3, S. stipitis xylose transporter RGT2, SEQ ID NO: 64, in S. cerevisiae Y-50049-YXI-RGT2 (NRRL Y-50465) (Scheffersomyces stipitis, UniProt J9PF54).
T3 construct: whole-cell xylose uptake; S. stipitis CUG codons are read as Leu in this host
T3 sequence (J9PF54 1-528): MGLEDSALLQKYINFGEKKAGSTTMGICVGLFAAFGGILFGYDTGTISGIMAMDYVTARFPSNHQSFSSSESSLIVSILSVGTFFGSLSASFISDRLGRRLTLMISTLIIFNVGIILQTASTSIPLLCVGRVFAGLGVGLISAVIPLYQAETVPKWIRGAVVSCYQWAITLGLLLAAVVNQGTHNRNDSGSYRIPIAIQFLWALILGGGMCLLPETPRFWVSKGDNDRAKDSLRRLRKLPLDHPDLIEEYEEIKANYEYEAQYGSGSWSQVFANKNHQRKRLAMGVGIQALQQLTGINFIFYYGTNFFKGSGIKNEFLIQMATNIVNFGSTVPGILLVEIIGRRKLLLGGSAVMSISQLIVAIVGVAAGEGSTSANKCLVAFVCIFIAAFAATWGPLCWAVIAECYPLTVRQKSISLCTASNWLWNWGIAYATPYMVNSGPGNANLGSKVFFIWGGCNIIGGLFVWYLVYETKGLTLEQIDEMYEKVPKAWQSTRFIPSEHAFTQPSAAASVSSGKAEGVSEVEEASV
Description: Aerobic xylose uptake kinetics (Lineweaver-Burk), Y-50049-YXI-RGT2. It counts as cell-based. The settings on record: whole cells, 30° C.
Text: as §1, §2

Test [5] addresses T4, S. stipitis xylose transporter XUT5, SEQ ID NO: 66, in S. cerevisiae Y-50049-YXI-XUT5 (NRRL Y-50746) (Scheffersomyces stipitis, UniProt A3LY79).
T4 construct: whole-cell xylose uptake; S. stipitis CUG codons are read as Leu in this host
Description: Aerobic xylose uptake kinetics (Lineweaver-Burk), Y-50049-YXI-XUT5. It counts as cell-based. The conditions noted are these: whole cells, 30° C.
Text: as §1, §2

The target in test [6] is T5, S. stipitis xylose transporter XUT6, SEQ ID NO: 67, in S. cerevisiae Y-50049-YXI-XUT6 (NRRL Y-50749) (Scheffersomyces stipitis, UniProt J9Q9F3).
T5 construct: whole-cell xylose uptake; S. stipitis CUG codons are read as Leu in this host
T5 sequence (J9Q9F3 1-544): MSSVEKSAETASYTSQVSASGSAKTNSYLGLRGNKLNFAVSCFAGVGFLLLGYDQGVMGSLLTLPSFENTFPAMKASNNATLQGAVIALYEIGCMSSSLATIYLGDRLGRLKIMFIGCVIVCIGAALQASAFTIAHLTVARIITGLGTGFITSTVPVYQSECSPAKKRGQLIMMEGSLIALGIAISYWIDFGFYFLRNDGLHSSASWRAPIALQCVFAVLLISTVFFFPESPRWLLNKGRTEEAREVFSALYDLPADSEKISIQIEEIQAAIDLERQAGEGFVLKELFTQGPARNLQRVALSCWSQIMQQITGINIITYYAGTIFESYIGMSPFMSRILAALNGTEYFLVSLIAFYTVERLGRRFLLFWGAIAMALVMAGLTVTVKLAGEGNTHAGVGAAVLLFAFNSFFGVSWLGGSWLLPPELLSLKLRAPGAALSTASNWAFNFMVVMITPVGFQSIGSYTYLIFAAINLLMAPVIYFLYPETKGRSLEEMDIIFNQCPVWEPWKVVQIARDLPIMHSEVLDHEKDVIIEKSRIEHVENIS
Description: Aerobic xylose uptake kinetics (Lineweaver-Burk), Y-50049-YXI-XUT6. The settings on record: whole cells, 30° C. It is filed as cell-based.
Text: as §1, §2

The subject of test [7] is S. stipitis Y-7124 xylose proton symporters. The conditions noted are these: associated with S. stipitis symport, approximate (~); cited from earlier work.
In test [8] the target is T6, S. stipitis xylose transporter SUT4, SEQ ID NO: 69, in S. cerevisiae Y-50049-YXI-SUT4 (NRRL Y-50748) (Scheffersomyces stipitis, UniProt J9Q8Z9).
T6 construct: whole-cell xylose uptake; S. stipitis CUG codons are read as Leu in this host
T6 sequence (J9Q8Z9 1-549): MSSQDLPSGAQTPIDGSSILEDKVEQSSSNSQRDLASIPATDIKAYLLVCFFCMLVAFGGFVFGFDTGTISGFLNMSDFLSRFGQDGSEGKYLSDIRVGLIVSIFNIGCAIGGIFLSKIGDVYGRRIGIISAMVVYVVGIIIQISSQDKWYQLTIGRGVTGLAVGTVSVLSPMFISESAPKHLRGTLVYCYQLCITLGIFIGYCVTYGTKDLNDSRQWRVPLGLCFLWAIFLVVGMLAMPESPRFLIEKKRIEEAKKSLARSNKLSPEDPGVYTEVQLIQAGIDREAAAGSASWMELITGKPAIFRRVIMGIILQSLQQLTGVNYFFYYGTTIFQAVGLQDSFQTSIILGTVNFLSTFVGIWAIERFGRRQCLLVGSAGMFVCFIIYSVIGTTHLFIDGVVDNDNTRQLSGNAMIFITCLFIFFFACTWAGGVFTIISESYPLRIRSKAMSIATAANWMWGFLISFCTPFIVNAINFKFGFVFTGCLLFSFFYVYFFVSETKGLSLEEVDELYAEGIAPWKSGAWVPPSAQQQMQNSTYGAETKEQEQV
Description: Aerobic xylose uptake kinetics (Lineweaver-Burk), Y-50049-YXI-SUT4. It counts as cell-based. The settings on record: whole cells, 30° C.
Text: as §1, §2

T4 sequence (A3LY79 entry or part of it): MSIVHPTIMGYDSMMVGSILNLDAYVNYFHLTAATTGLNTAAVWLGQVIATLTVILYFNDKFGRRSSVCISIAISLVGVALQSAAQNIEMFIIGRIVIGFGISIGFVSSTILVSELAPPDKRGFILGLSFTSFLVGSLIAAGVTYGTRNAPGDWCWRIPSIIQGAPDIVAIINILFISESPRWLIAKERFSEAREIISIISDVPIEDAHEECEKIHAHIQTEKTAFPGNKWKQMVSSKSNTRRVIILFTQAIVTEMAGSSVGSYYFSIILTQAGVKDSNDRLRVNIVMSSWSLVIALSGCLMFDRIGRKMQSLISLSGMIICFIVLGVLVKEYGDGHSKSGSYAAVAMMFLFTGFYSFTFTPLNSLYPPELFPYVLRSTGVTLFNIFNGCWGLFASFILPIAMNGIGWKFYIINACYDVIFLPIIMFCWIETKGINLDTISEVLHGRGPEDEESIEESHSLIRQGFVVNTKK

Broadly, the Km is the substrate concentration at which the rate is half of its maximum. As for `OC1OC[C@@H](O)[C@H](O)[C@H]1O` (stereo partly drawn) [xylose, D-xylose], the Vmax in test [1] is 0.14 g/g/h; in test [2] it was 0.26 g/g/h; in test [3], 0.35 g/g/h; in test [4] it was 0.28 g/g/h; in test [5], 0.88 g/g/h; in test [6] it was 0.33 g/g/h. The Vmax in test [8] was determined as 0.36 g/g/h. For the same molecule, the Km in test [7] is 0.01 to 0.3 g/L.
